Assay results published in the supplement of paper PMC10307832.

Assays:
Experiment in all cases: relative viability (nuclei count vs DMSO), 5 days (fraction); higher = more cells survive
[1] = compound: OCc1c[nH]c2ccccc12 [Indole-3-carbinol] + Nc1nc2[nH]cc(CCc3ccc(C(=O)N[C@@H](CCC(=O)O)C(=O)O)cc3)c2c(=O)[nH]1 [Pemetrexed] (partner 0.2 µM)
Summary of the method: (§1)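 The day after seeding in 1536-well plates, lung cancer cell lines were treated by pin tool with a single drug, or with a fixed anchor-drug dose together with five library-drug doses (not always all listed) in √10 steps. After 5 days, a combined fix-and-stain solution (final 0.05% Triton X-100, 1% formaldehyde, 1 ug/ml Hoechst) was added. Nuclei counted on 4× images gave relative viability as treated counts over vehicle counts, reported as the median of duplicate plates.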

[2] = compound: OCc1c[nH]c2ccccc12 [Indole-3-carbinol] + CC(=O)c1c(C)c2cnc(Nc3ccc(N4CCNCC4)cn3)nc2n(C2CCCC2)c1=O [Palbociclib] (partner 0.5 µM)
Summary of the method: as §1

[3] = compound: OCc1c[nH]c2ccccc12 [Indole-3-carbinol] + CC(C)C[C@H](NC(=O)[C@H](Cc1ccccc1)NC(=O)c1cnccn1)B(O)O [Bortezomib] (partner 0.002 µM)
Summary of the method: as §1

[4] = compound: OCc1c[nH]c2ccccc12 [Indole-3-carbinol] + CS(=O)(=O)CCNCc1ccc(-c2ccc3ncnc(Nc4ccc(OCc5cccc(F)c5)c(Cl)c4)c3c2)o1 [Lapatinib] (partner 2 µM)
Summary of the method: as §1

[5] = compound: OCc1c[nH]c2ccccc12 [Indole-3-carbinol] + CS(=O)(=O)N1CCN(Cc2cc3nc(-c4cccc5[nH]ncc45)nc(N4CCOCC4)c3s2)CC1 [Pictilisib] (partner 1 µM)
Summary of the method: as §1

Row | Cell Line | relative viability ([1]; first compound 0.253 µM) | relative viability ([1]; first compound 0.8 µM) | relative viability ([1]; first compound 2.53 µM) | relative viability ([1]; first compound 8 µM) | relative viability ([2]; first compound 0.253 µM) | relative viability ([2]; first compound 0.8 µM) | relative viability ([2]; first compound 2.53 µM) | relative viability ([2]; first compound 8 µM) | relative viability ([3]; first compound 0.253 µM) | relative viability ([3]; first compound 0.8 µM) | relative viability ([3]; first compound 2.53 µM) | relative viability ([3]; first compound 8 µM) | relative viability ([4]; first compound 0.253 µM) | relative viability ([4]; first compound 0.8 µM) | relative viability ([4]; first compound 2.53 µM) | relative viability ([4]; first compound 8 µM) | relative viability ([5]; first compound 0.253 µM) | relative viability ([5]; first compound 0.8 µM) | relative viability ([5]; first compound 2.53 µM) | relative viability ([5]; first compound 8 µM)
1 | HCC-366 | 0.198 | 0.202 | 0.179 | 0.169 | 0.419 | 0.384 | 0.455 | 0.356 | 0.986 | 0.858 | 1.05 | 1.09 | 1.07 | 0.867 | 0.985 | 0.987 | 0.175 | 0.111 | 0.18 | 0.18
2 | HCC-827 | 0.261 | 0.258 | 0.278 | 0.255 | 0.495 | 0.292 | 0.479 | 0.471 | 0.873 | 0.986 | 1.03 | 0.986 | 0.202 | 0.18 | 0.227 | 0.191 | 0.926 | 1.04 | 0.841 | 1.07
3 | HOP-62 | 0.284 | 0.296 | 0.388 | 0.376 | 0.444 | 0.457 | 0.451 | 0.426 | 0.989 | 0.711 | 0.82 | 0.521 | 0.957 | 0.874 | 1.11 | 0.966 | 0.771 | 0.806 | 1.01 | 0.731
4 | LC-2-ad | 0.282 | 0.276 | 0.246 | 0.263 | 0.533 | 0.534 | 0.513 | 0.455 | 1.13 | 1.11 | 0.994 | 0.974 | 0.977 | 0.974 | 0.893 | 0.938 | 0.439 | 0.502 | 0.466 | 0.464
5 | LCLC-97TM1 | 0.167 | 0.197 | 0.185 | 0.154 | 0.237 | 0.266 | 0.225 | 0.236 | 0.651 | 0.686 | 0.778 | 0.447 | 0.599 | 0.935 | 0.911 | 0.582 | 0.139 | 0.224 | 0.177 | 0.223
6 | LOU-NH91 | 0.432 | 0.404 | 0.401 | 0.396 | 0.492 | 0.547 | 0.535 | 0.497 | 0.497 | 0.459 | 0.566 | 0.522 | 0.762 | 0.706 | 0.748 | 0.771 | 0.488 | 0.472 | 0.539 | 0.57
7 | LU99A | 0.169 | 0.163 | 0.187 | 0.175 | 0.397 | 0.423 | 0.385 | 0.381 | 1.31 | 1.11 | 1.06 | 1.02 | 0.893 | 0.968 | 0.973 | 0.89 | 0.318 | 0.367 | 0.302 | 0.35
8 | LXF-289 | 0.944 | 1.02 | 0.934 | 0.851 | 0.58 | 0.611 | 0.609 | 0.56 | 1.03 | 1.1 | 0.944 | 0.893 | 0.919 | 0.946 | 0.881 | 0.841 | 0.837 | 0.814 | 0.807 | 0.747
9 | NCI-H23 | 0.738 | 0.773 | 0.844 | 0.788 | 0.435 | 0.463 | 0.546 | 0.419 | 0.898 | 1.16 | 0.846 | 0.975 | 1.09 | 1.1 | 1.06 | 0.9 | 0.434 | 0.485 | 0.581 | 0.451
10 | NCI-H322M | 0.562 | 0.685 | 0.546 | 0.636 | 0.456 | 0.481 | 0.506 | 0.476 | 1.18 | 1.25 | 1.3 | 1.07 | 0.601 | 0.537 | 0.575 | 0.549 | 0.45 | 0.487 | 0.486 | 0.502
11 | NCI-H460 | 0.0608 | 0.0603 | 0.063 | 0.0679 | 0.149 | 0.17 | 0.229 | 0.19 | 1.14 | 1.14 | 1.11 | 1.03 | 1.09 | 0.993 | 0.983 | 0.9 | 0.479 | 0.271 | 0.373 | 0.337
12 | NCI-H520 | 0.671 | 0.687 | 0.69 | 0.757 | 0.225 | 0.183 | 0.21 | 0.217 | 0.543 | 0.613 | 0.498 | 0.563 | 0.899 | 0.838 | 0.868 | 0.742 | 0.287 | 0.255 | 0.27 | 0.254
13 | NCI-H647 | 0.18 | 0.202 | 0.159 | 0.181 | 0.392 | 0.318 | 0.292 | 0.433 | 1.15 | 0.718 | 1.04 | 0.883 | 1.24 | 0.904 | 0.87 | 0.969 | 0.469 |  | 0.489 | 0.437
14 | NCI-H650 | 0.959 | 0.851 | 0.937 | 1.04 | 0.311 | 0.338 | 0.352 | 0.307 | 0.955 | 0.748 | 0.83 | 0.746 | 0.333 | 0.817 | 0.98 | 0.842 | 0.899 | 0.871 | 0.929 | 0.913
15 | NCI-H661 | 0.898 | 0.891 | 0.945 | 0.891 | 0.426 | 0.412 | 0.447 | 0.444 | 0.94 | 0.602 | 0.748 | 0.746 | 0.541 | 0.44 | 0.533 | 0.478 | 0.389 | 0.325 | 0.448 | 0.384
16 | NCI-H838 | 0.236 | 0.256 | 0.265 | 0.254 | 0.191 | 0.203 | 0.231 | 0.223 | 0.842 | 0.789 | 0.856 | 0.913 | 1.09 | 0.805 | 0.959 | 0.949 | 0.537 | 0.431 | 0.459 | 0.431
